Like-named read-outs stand apart in the source and are kept apart here.
Test system: Colo205 cells
Type: cell-based, human
[1] = selinexor-treated nucleus vs MYXV + selinexor-treated nucleus

O=C(/C=C\n1cnc(-c2cc(C(F)(F)F)cc(C(F)(F)F)c2)n1)NNc1cnccn1 [selinexor]
Differential protein expression, NPAT (Q14207, selinexor-treated cytoplasm vs control cytoplasm): 0.01
Differential protein expression, DSC3 (Q14574, selinexor-treated cytoplasm vs control cytoplasm): 2.069
Differential protein expression, NCOA6 (Q14686, selinexor-treated cytoplasm vs control cytoplasm): 0.01
Differential protein expression, SETDB1 (Q15047, selinexor-treated cytoplasm vs control cytoplasm): 0.01
Differential protein expression, RRS1 (Q15050, selinexor-treated cytoplasm vs control cytoplasm): 2.155
Differential protein expression, TOMM20 (Q15388, selinexor-treated cytoplasm vs control cytoplasm): 2.862
Differential protein expression, CDSN (Q15517, selinexor-treated cytoplasm vs control cytoplasm): 3.988
Differential protein expression, TAF7 (Q15545, selinexor-treated cytoplasm vs control cytoplasm): 0.402
Differential protein expression, TAF1C (Q15572, selinexor-treated cytoplasm vs control cytoplasm): 100
Differential protein expression, ELF2 (Q15723, selinexor-treated cytoplasm vs control cytoplasm): 0.01
Differential protein expression, M11L (Q85295, selinexor-treated cytoplasm vs control cytoplasm): 4.074
Differential protein expression, MYO18A (Q92614, selinexor-treated cytoplasm vs control cytoplasm): 2.026
Differential protein expression, USP6NL (Q92738, selinexor-treated cytoplasm vs control cytoplasm): 100
Differential protein expression, TAF15 (Q92804, selinexor-treated cytoplasm vs control cytoplasm): 2.706
Differential protein expression, KAT5 (Q92993, selinexor-treated cytoplasm vs control cytoplasm): 7.08
Differential protein expression, TEAD3 (Q99594, selinexor-treated cytoplasm vs control cytoplasm): 100
Differential protein expression, SLC29A1 (Q99808, selinexor-treated cytoplasm vs control cytoplasm): 0.406
Differential protein expression, selinexor-treated nucleus vs control nucleus (protein AAAS (Q9NRG9)): 0.477
Differential protein expression, selinexor-treated nucleus vs control nucleus (protein ABHD10 (Q9NUJ1)): 2.289
Differential protein expression, selinexor-treated nucleus vs control nucleus (protein ACAD10 (Q6JQN1)): 2.239
Differential protein expression, selinexor-treated nucleus vs control nucleus (protein BRIX1 (Q8TDN6)): 0.475
Differential protein expression, selinexor-treated nucleus vs control nucleus (protein CALML5 (Q9NZT1)): 2.328
Differential protein expression, selinexor-treated nucleus vs control nucleus (protein CASP9 (P55211)): 100
Differential protein expression, selinexor-treated nucleus vs control nucleus (protein CDK3 (Q00526)): 0.472
Differential protein expression, selinexor-treated nucleus vs control nucleus (protein CHMP2B (Q9UQN3)): 2.092
Differential protein expression, selinexor-treated nucleus vs control nucleus (protein CIB1 (Q99828)): 0.474
Differential protein expression, selinexor-treated nucleus vs control nucleus (protein CIT (O14578)): 0.498
Differential protein expression, selinexor-treated nucleus vs control nucleus (protein COA1 (Q9GZY4)): 0.481
Differential protein expression, selinexor-treated nucleus vs control nucleus (protein CSTA (P01040)): 2.196
Differential protein expression, selinexor-treated nucleus vs control nucleus (protein ECHDC1 (Q9NTX5)): 2.716
Differential protein expression, selinexor-treated nucleus vs control nucleus (protein EFNB1 (P98172)): 100
Differential protein expression, selinexor-treated nucleus vs control nucleus (protein ERLIN2 (O94905)): 0.498
Differential protein expression, selinexor-treated nucleus vs control nucleus (protein F5 (P12259)): 100
Differential protein expression, selinexor-treated nucleus vs control nucleus (protein FBLIM1 (Q8WUP2)): 0.481
Differential protein expression, selinexor-treated nucleus vs control nucleus (protein FHIP1B (Q8N612)): 100
Differential protein expression, selinexor-treated nucleus vs control nucleus (protein FN3K (Q9H479)): 2.007
Differential protein expression, selinexor-treated nucleus vs control nucleus (protein FOS (P01100)): 2.044
Differential protein expression, selinexor-treated nucleus vs control nucleus (protein FXR1 (Q9UM11)): 2.17
Differential protein expression, selinexor-treated nucleus vs control nucleus (protein GEMIN5 (Q8TEQ6)): 0.496
Differential protein expression, selinexor-treated nucleus vs control nucleus (protein GEMIN6 (Q8WXD5)): 0.473
Differential protein expression, selinexor-treated nucleus vs control nucleus (protein GNL2 (Q13823)): 2.38
Differential protein expression, selinexor-treated nucleus vs control nucleus (protein H2AC1 (Q96QV6)): 2.215
Differential protein expression, selinexor-treated nucleus vs control nucleus (protein H2AC4 (P04908)): 2.544
Differential protein expression, selinexor-treated nucleus vs control nucleus (protein H2AC6 (Q93077)): 2.544
Differential protein expression, selinexor-treated nucleus vs control nucleus (protein H2AC18 (Q6FI13)): 2.322
Differential protein expression, selinexor-treated nucleus vs control nucleus (protein H2AC20 (Q16777)): 2.322
Differential protein expression, selinexor-treated nucleus vs control nucleus (protein H2AC21 (Q8IUE6)): 2.215
Differential protein expression, selinexor-treated nucleus vs control nucleus (protein H2AC25 (Q7L7L0)): 2.544
Differential protein expression, selinexor-treated nucleus vs control nucleus (protein H2AX (P16104)): 2.215
Differential protein expression, selinexor-treated nucleus vs control nucleus (protein H2BK1 (A0A2R8Y619)): 2.69
Differential protein expression, selinexor-treated nucleus vs control nucleus (protein H3-3A (P84243)): 2.584
Differential protein expression, selinexor-treated nucleus vs control nucleus (protein HK1 (P19367)): 0.496
Differential protein expression, selinexor-treated nucleus vs control nucleus (protein HNRNPA1L2 (Q32P51)): 2.623
Differential protein expression, selinexor-treated nucleus vs control nucleus (protein KIF23 (Q02241)): 0.492
Differential protein expression, selinexor-treated nucleus vs control nucleus (protein KRT1 (P04264)): 2.317
Differential protein expression, selinexor-treated nucleus vs control nucleus (protein KRT7 (P08729)): 2.576
Differential protein expression, selinexor-treated nucleus vs control nucleus (protein KRT14 (P02533)): 2.157
Differential protein expression, selinexor-treated nucleus vs control nucleus (protein KRT24 (Q2M2I5)): 2.19
Differential protein expression, selinexor-treated nucleus vs control nucleus (protein KRT25 (Q7Z3Z0)): 2.158
Differential protein expression, selinexor-treated nucleus vs control nucleus (protein KRT27 (Q7Z3Y8)): 2.158
Differential protein expression, selinexor-treated nucleus vs control nucleus (protein KRT28 (Q7Z3Y7)): 2.058
Differential protein expression, selinexor-treated nucleus vs control nucleus (protein LGALS7 (P47929)): 2.013
Differential protein expression, selinexor-treated nucleus vs control nucleus (protein LRRC58 (Q96CX6)): 2.747
Differential protein expression, selinexor-treated nucleus vs control nucleus (protein MAFF (Q9ULX9)): 2.133
Differential protein expression, selinexor-treated nucleus vs control nucleus (protein MAGED2 (Q9UNF1)): 2.271
Differential protein expression, selinexor-treated nucleus vs control nucleus (protein MAN1A1 (P33908)): 100
Differential protein expression, selinexor-treated nucleus vs control nucleus (protein MICOS13 (Q5XKP0)): 0.483
Differential protein expression, selinexor-treated nucleus vs control nucleus (protein MTX1 (Q13505)): 0.499
Differential protein expression, selinexor-treated nucleus vs control nucleus (protein NDE1 (Q9NXR1)): 0.484
Differential protein expression, selinexor-treated nucleus vs control nucleus (protein NDEL1 (Q9GZM8)): 0.481
Differential protein expression, selinexor-treated nucleus vs control nucleus (protein NDUFA5 (Q16718)): 0.488
Differential protein expression, selinexor-treated nucleus vs control nucleus (protein NDUFA11 (Q86Y39)): 0.492
Differential protein expression, selinexor-treated nucleus vs control nucleus (protein NDUFS3 (075489)): 0.478
Differential protein expression, selinexor-treated nucleus vs control nucleus (protein NDUFS8 (O00217)): 0.487
Differential protein expression, selinexor-treated nucleus vs control nucleus (protein NFAT5 (O94916)): 2.586
Differential protein expression, selinexor-treated nucleus vs control nucleus (protein NUDT3 (O95989)): 100
Differential protein expression, selinexor-treated nucleus vs control nucleus (protein NXN (Q6DKJ4)): 100
Differential protein expression, selinexor-treated nucleus vs control nucleus (protein OAS1 (P00973)): 2.45
Differential protein expression, selinexor-treated nucleus vs control nucleus (protein OCIAD2 (Q56VL3)): 0.5
Differential protein expression, selinexor-treated nucleus vs control nucleus (protein PAN2 (Q504Q3)): 2.108
Differential protein expression, selinexor-treated nucleus vs control nucleus (protein PAN3 (Q58A45)): 2.073
Differential protein expression, selinexor-treated nucleus vs control nucleus (protein PANK1 (Q8TE04)): 100
Differential protein expression, selinexor-treated nucleus vs control nucleus (protein PATL1 (Q86TB9)): 0.487
Differential protein expression, selinexor-treated nucleus vs control nucleus (protein PAXX (Q9BUH6)): 2.321
Differential protein expression, selinexor-treated nucleus vs control nucleus (protein PHF19 (Q5T6S3)): 0.477
Differential protein expression, selinexor-treated nucleus vs control nucleus (protein PNO1 (Q9NRX1)): 2.639
Differential protein expression, selinexor-treated nucleus vs control nucleus (protein POLR2B (P30876)): 0.486
Differential protein expression, selinexor-treated nucleus vs control nucleus (protein PRDX4 (Q13162)): 2.477
Differential protein expression, selinexor-treated nucleus vs control nucleus (protein RBL2 (Q08999)): 2.063
Differential protein expression, selinexor-treated nucleus vs control nucleus (protein ROCK1 (Q13464)): 2.201
Differential protein expression, selinexor-treated nucleus vs control nucleus (protein RPL10 (P27635)): 0.483
Differential protein expression, selinexor-treated nucleus vs control nucleus (protein RPL10L (Q96L21)): 0.473
Differential protein expression, selinexor-treated nucleus vs control nucleus (protein RPLP1 (P05386)): 0.472
Differential protein expression, selinexor-treated nucleus vs control nucleus (protein RRM1 (P23921)): 0.488
Differential protein expression, selinexor-treated nucleus vs control nucleus (protein RTN4 (Q9NQC3)): 0.491
Differential protein expression, selinexor-treated nucleus vs control nucleus (protein S100A8 (P05109)): 2.396
Differential protein expression, selinexor-treated nucleus vs control nucleus (protein SDAD1 (Q9NVU7)): 2.021
Differential protein expression, selinexor-treated nucleus vs control nucleus (protein SDCBP2 (Q9H190)): 2.735
Differential protein expression, selinexor-treated nucleus vs control nucleus (protein SFXN2 (Q96NB2)): 0.478
Differential protein expression, selinexor-treated nucleus vs control nucleus (protein SFXN5 (Q8TD22)): 0.48
Differential protein expression, selinexor-treated nucleus vs control nucleus (protein SLC12A7 (Q9Y666)): 0.496
Differential protein expression, selinexor-treated nucleus vs control nucleus (protein SLC25A11 (Q02978)): 0.496
Differential protein expression, selinexor-treated nucleus vs control nucleus (protein SLC25A12 (O75746)): 0.483
Differential protein expression, selinexor-treated nucleus vs control nucleus (protein SLC25A17 (O43808)): 0.484
Differential protein expression, selinexor-treated nucleus vs control nucleus (protein SLC25A35 (Q3KQZ1)): 0.474
Differential protein expression, selinexor-treated nucleus vs control nucleus (protein SPG7 (Q9UQ90)): 0.481
Differential protein expression, selinexor-treated nucleus vs control nucleus (protein TDRKH (Q9Y2W6)): 0.492
Differential protein expression, selinexor-treated nucleus vs control nucleus (protein TEAD2 (Q15562)): 0.487
Differential protein expression, selinexor-treated nucleus vs control nucleus (protein TEAD4 (Q15561)): 0.494
Differential protein expression, selinexor-treated nucleus vs control nucleus (protein TMA7 (Q9Y2S6)): 2.251
Differential protein expression, selinexor-treated nucleus vs control nucleus (protein TOMM20 (Q15388)): 0.497
Differential protein expression, selinexor-treated nucleus vs control nucleus (protein TPPP3 (Q9BW30)): 2.549
Differential protein expression, selinexor-treated nucleus vs control nucleus (protein UQCR10 (Q9UDW1)): 0.477
Differential protein expression, selinexor-treated nucleus vs control nucleus (protein VCPIP1 (Q96JH7)): 2.057
Differential protein expression, selinexor-treated nucleus vs control nucleus (protein YBX1 (P67809)): 0.477
Differential protein expression, selinexor-treated nucleus vs control nucleus (protein m090L (D2WN26)): 100
Differential protein expression, selinexor-treated nucleus vs control nucleus (protein m093L (Q9Q8K7)): 0.498
Differential protein expression B2CWA6 m003.1R [1]: 0.145
Differential protein expression B2CWA8 [1]: 0.122
Differential protein expression B2CWB0 [1]: 0.01
Differential protein expression B2CWB2 [1]: 0.055
Differential protein expression B2CWB4 m008.1L [1]: 0.045
Differential protein expression B2CWB5 [1]: 0.036
Differential protein expression B2CWC0 [1]: 0.092
Differential protein expression B2CWC1 m015L [1]: 0.04
Differential protein expression B2CWC6 m020L [1]: 0.191
Differential protein expression B2CWC8 [1]: 0.058
Differential protein expression B2CWD4 m027L [1]: 0.045
Differential protein expression B2CWD6 m029L [1]: 0.023
Differential protein expression B2CWD8 [1]: 0.011
Differential protein expression B2CWE0 m033R [1]: 0.01
Differential protein expression B2CWE1 [1]: 0.047
Differential protein expression B2CWE3 [1]: 0.064
Differential protein expression B2CWF3 m046L [1]: 0.111
Differential protein expression B2CWF4 m047R [1]: 0.039
Differential protein expression B2CWF6 [1]: 0.051
